Experimental data from patent publication US10392422B2, “Macrocyclic broad spectrum antibiotics” (priority 2014, dated 2019).
Converted amounts (≈) assume the structure as drawn. Read-outs that look alike come from different tables or passages of the source.

What was measured:
Test in all cases: MIC, broth micro-dilution technique (CLSI)
MRSA COL (NRS100) = format: cell-based, Staphylococcus aureus; conditions: Staphylococcus aureus, 22 h, read-out: MIC (μg/mL) (COL)
Outline: (§1)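 CLSI broth microdilution in cation-adjusted Mueller Hinton broth with 0.002% v/v Tween-80. Compounds were serially 2-fold diluted over 10 concentrations from 64 μg/ml, or from 4 μg/mL in a modified protocol; inoculum at final OD600 0.0005, incubated 35° C for 22 hours.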

[1] = test system: Escherichia coli MC4100 harboring the IMP4213; format: cell-based; conditions: Escherichia coli, 22 h, read-out: MIC (μg/mL) E. coli, Table 1 protocol: serial 2-fold dilutions starting from 64 μg/ml; 35° C., 22 hours
Outline: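 Susceptibility is tested by broth micro-dilution per CLSI, using ten serial 2-fold dilutions beginning at 64 μg/ml or, in a modified version, 4 μg/mL. The E. coli MC4100 strain carries an imp allele raising outer-membrane permeability.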

[2] = test system: Methicillin Resistant Staphylococcus aureus strain USA 300 (NRS384); format: cell-based; conditions: Staphylococcus aureus, 22 h, read-out: MIC (μg/mL) S. aureus
Outline: as §1

[3] = Table 1 protocol: serial 2-fold dilutions starting from 64 μg/ml, 35° C., 22 hours

Structure (SMILES)	MIC (MRSA COL (NRS100); [3])	MIC [1]	MIC [2, 3]	MIC (MRSA COL (NRS100))	MIC [2]
CC(=O)[C@H](C)NC(=O)[C@@H]1Cc2ccc(OCC(=O)O)c(c2)-c2cc(ccc2O)[C@H](N(C)C(=O)[C@H](CCCCN)NC(=O)c2ccc(-c3ccc(Cl)cc3)cc2)C(=O)N[C@@H](C)C(=O)N1 [Compound 207]	6 µg/mL (≈ 6.79 µM)	32 µg/mL (≈ 36.2 µM)	32 µg/mL (≈ 36.2 µM)		
CC(=O)[C@H](C)NC(=O)[C@@H]1Cc2ccc(OCC(=O)O)c(c2)-c2cc(ccc2OCCN)[C@H](N(C)C(=O)[C@H](CCCCN)NC(=O)c2ccc(-c3ccc(Cl)cc3)cc2)C(=O)N[C@@H](C)C(=O)N1 [Compound 208]	6 µg/mL (≈ 6.48 µM)	16 µg/mL (≈ 17.3 µM)	23 µg/mL (≈ 24.8 µM)		
CC(=O)[C@H](C)NC(=O)[C@@H]1Cc2ccc(OCCN)c(c2)-c2cc(ccc2OCCN)[C@H](N(C)C(=O)[C@H](CCCCN)NC(=O)c2ccc(-c3ccc(Cl)cc3)cc2)C(=O)N[C@@H](C)C(=O)N1 [Compound 209]	0.13 µg/mL (≈ 0.143 µM)	4 µg/mL (≈ 4.39 µM)	0.5 µg/mL (≈ 0.549 µM)		
CC(=O)[C@H](C)NC(=O)[C@@H]1Cc2ccc(O)c(c2)-c2cc(cc(CN)c2O)[C@H](N(C)C(=O)[C@H](CCCCN)NC(=O)c2ccc(-c3ccccc3)cc2)C(=O)N[C@@H](C)C(=O)N1 [Compound 210]	4 µg/mL (≈ 4.88 µM)	32 µg/mL (≈ 39 µM)	32 µg/mL (≈ 39 µM)		
C[C@@H]1NC(=O)[C@@H](N(C)C(=O)[C@H](CCCCN)NC(=O)c2ccc(-c3ccc(Cl)cc3)cc2)c2cc(c3oc(CN)cc3c2)-c2cc(ccc2O)C[C@@H](C(=O)O)NC1=O [Compound 211]		2 µg/mL (≈ 2.47 µM)		2 µg/mL (≈ 2.47 µM)	11 µg/mL (≈ 13.6 µM)
CC(=O)[C@H](C)NC(=O)[C@@H]1Cc2ccc(O)c(c2)-c2cc(cc3cc(CN)oc23)[C@H](N(C)C(=O)[C@H](CCCCN)NC(=O)c2ccc(-c3ccc(Cl)cc3)cc2)C(=O)N[C@@H](C)C(=O)N1 [Compound 212]	0.5 µg/mL (≈ 0.569 µM)	5.7 µg/mL (≈ 6.49 µM)	2.5 µg/mL (≈ 2.85 µM)		
CC(=O)[C@H](C)NC(=O)[C@@H]1Cc2ccc(O)c(c2)-c2cc(cc(CCCN)c2OCCN)[C@H](N(C)C(=O)[C@H](CCCCN)NC(=O)c2ccc(-c3ccccc3)cc2)C(=O)N[C@@H](C)C(=O)N1 [Compound 213]	2 µg/mL (≈ 2.24 µM)	4 µg/mL (≈ 4.49 µM)	16 µg/mL (≈ 18 µM)		
CCCCCCCCCCNCCS(=O)(=O)N[C@@H](CCCCN)C(=O)N(C)[C@@H]1C(=O)N[C@@H](C)C(=O)N[C@H](C(=O)O)Cc2ccc(O)c(c2)-c2cc1ccc2O [Compound 214]		64 µg/mL (≈ 81.1 µM)		0.75 µg/mL (≈ 0.951 µM)	2.8 µg/mL (≈ 3.55 µM)
CCCCCCCCCCNCCS(=O)(=O)N[C@@H](CCCCN)C(=O)N(C)[C@@H]1C(=O)N[C@@H](C)C(=O)N[C@H](C(=O)N[C@@H](C)C(=O)N2CCC[C@H]2C(N)=O)Cc2ccc(O)c(c2)-c2cc1ccc2O [Compound 215]	0.25 µg/mL (≈ 0.261 µM)	> 64 µg/mL	0.5 µg/mL (≈ 0.523 µM)		
CCCCCCCCCCNCCS(=O)(=O)N[C@@H](CCCCN)C(=O)N(C)[C@@H]1C(=O)N[C@@H](C)C(=O)N[C@H](C(=O)N[C@@H](C)C(C)=O)Cc2ccc(O)c(c2)-c2cc1ccc2OCCN [Compound 216]	0.063 µg/mL (≈ 0.0699 µM)	64 µg/mL (≈ 71 µM)	0.13 µg/mL (≈ 0.144 µM)		
CCCCCCCCCNCCCS(=O)(=O)N[C@@H](CCCCN)C(=O)N(C)[C@@H]1C(=O)N[C@@H](C)C(=O)N[C@H](C(=O)N[C@@H](C)C(C)=O)Cc2ccc(O)c(c2)-c2cc1ccc2O [Compound 217]	0.75 µg/mL (≈ 0.874 µM)	> 64 µg/mL	2 µg/mL (≈ 2.33 µM)		
CCCCCCCCCCNCCS(=O)(=O)N[C@@H](CCN)C(=O)N(C)[C@@H]1C(=O)N[C@@H](C)C(=O)N[C@H](C(=O)N[C@@H](C)C(C)=O)Cc2ccc(O)c(c2)-c2cc1ccc2O [Compound 218]		> 64 µg/mL		0.13 µg/mL (≈ 0.157 µM)	0.35 µg/mL (≈ 0.422 µM)
CCCCCCCCCCNCCS(=O)(=O)N[C@@H](CCCN)C(=O)N(C)[C@@H]1C(=O)N[C@@H](C)C(=O)N[C@H](C(=O)N[C@@H](C)C(C)=O)Cc2ccc(O)c(c2)-c2cc1ccc2O [Compound 219]		> 64 µg/mL		0.13 µg/mL (≈ 0.154 µM)	0.35 µg/mL (≈ 0.415 µM)
CCCCCCCCCCCCS(=O)(=O)N[C@@H](CCCCN)C(=O)N(C)[C@@H]1C(=O)N[C@@H](C)C(=O)N[C@H](C(=O)O)Cc2ccc(O)c(c2)-c2cc1ccc2O [Compound 220]		16 µg/mL (≈ 20.7 µM)		0.33 µg/mL (≈ 0.426 µM)	2 µg/mL (≈ 2.58 µM)
CCCCCCCCCCCCS(=O)(=O)N[C@@H](CCCCN)C(=O)N(C)[C@@H]1C(=O)N[C@@H](C)C(=O)N[C@H](C(=O)N[C@@H](C)C(C)=O)Cc2ccc(O)c(c2)-c2cc1ccc2O [Compound 221]	0.13 µg/mL (≈ 0.154 µM)	45 µg/mL (≈ 53.4 µM)	0.5 µg/mL (≈ 0.593 µM)		
CCCCCCCCCCS(=O)(=O)N[C@@H](CCCCN)C(=O)N(C)[C@@H]1C(=O)N[C@@H](C)C(=O)N[C@H](C(=O)O)Cc2ccc(O)c(c2)-c2cc1ccc2O [Compound 222]		> 64 µg/mL		3 µg/mL (≈ 4.02 µM)	16 µg/mL (≈ 21.4 µM)

Structure (SMILES)	MIC (MRSA COL (NRS100); [3])	MIC [1]	MIC [2, 3]	MIC (MRSA COL (NRS100))	MIC [2]
CC(=O)[C@H](C)NC(=O)[C@@H]1Cc2ccc(O)c(c2)-c2cc(ccc2O)[C@H](N(C)C(=O)[C@H](CCCCN)NS(=O)(=O)c2ccc(-c3ccc(Cl)cc3)cc2)C(=O)N[C@@H](C)C(=O)N1 [Compound 223]	2 µg/mL (≈ 2.32 µM)	32 µg/mL (≈ 37.1 µM)	0.71 µg/mL (≈ 0.824 µM)		
CCCCCCCCCCS(=O)(=O)N[C@@H](CCCCN)C(=O)N(C)[C@@H]1C(=O)N[C@@H](C)C(=O)N[C@H](C(=O)N[C@@H](C)C(=O)N2CCC[C@H]2C(N)=O)Cc2ccc(O)c(c2)-c2cc1ccc2O [Compound 224]	0.13 µg/mL (≈ 0.142 µM)	64 µg/mL (≈ 70.1 µM)	16 µg/mL (≈ 17.5 µM)		
C[C@@H]1NC(=O)[C@@H](N(C)C(=O)[C@H](CCCCN)NS(=O)(=O)c2ccc(-c3ccc(Cl)cc3)cc2)c2ccc(O)c(c2)-c2cc(ccc2O)C[C@@H](C(=O)N[C@@H](C)C(=O)N2CCC[C@H]2C(N)=O)NC1=O [Compound 225]	6 µg/mL (≈ 6.25 µM)	> 64 µg/mL	23 µg/mL (≈ 24 µM)		
CC(=O)[C@H](C)NC(=O)[C@@H]1Cc2ccc(O)c(c2)-c2cc(cc(C#CCN)c2OCCN)[C@H](N(C)C(=O)[C@H](CCCCN)NC(=O)c2ccc(-c3ccc(Cl)cc3)cc2)C(=O)N[C@@H](C)C(=O)N1 [Compound 226]	0.25 µg/mL (≈ 0.271 µM)	4 µg/mL (≈ 4.34 µM)	4 µg/mL (≈ 4.34 µM)		
C[C@@H]1NC(=O)[C@@H](N(C)C(=O)[C@H](CCCCN)NC(=O)c2ccc(-c3ccc(Cl)cc3)cc2)c2ccc(O)c(c2)-c2cc(ccc2O)C[C@@H](C(=O)N[C@@H](C)C(=O)C(=O)Nc2ccn[nH]2)NC1=O [Compound 227]	2 µg/mL (≈ 2.17 µM)	> 64 µg/mL	12 µg/mL (≈ 13 µM)		
C[C@@H]1NC(=O)[C@@H](N(C)C(=O)[C@H](CCCCN)NC(=O)c2ccc(-c3ccc(Cl)cc3)cc2)c2ccc(O)c(c2)-c2cc(ccc2O)C[C@@H](C(=O)N[C@@H](C)C(=O)C(F)(F)C(N)=O)NC1=O [Compound 228]	2 µg/mL (≈ 2.21 µM)	15 µg/mL (≈ 16.6 µM)	5.3 µg/mL (≈ 5.86 µM)		
C[C@@H]1NC(=O)[C@@H](N(C)C(=O)[C@H](CCCCN)NC(=O)c2ccc(-c3ccc(Cl)cc3)cc2)c2ccc(O)c(c2)-c2cc(ccc2O)C[C@@H](C(=O)N[C@@H](C)C(=O)c2c[nH]cn2)NC1=O [Compound 229]	1 µg/mL (≈ 1.14 µM)	24 µg/mL (≈ 27.4 µM)	4 µg/mL (≈ 4.56 µM)		
C[C@@H]1NC(=O)[C@@H](N(C)C(=O)[C@H](CCCCN)NC(=O)c2ccc(-c3ccc(Cl)cc3)cc2)c2ccc(O)c(c2)-c2cc(ccc2O)C[C@@H](C(=O)N[C@@H](C)C(=O)c2c[nH]nn2)NC1=O [Compound 230]	8 µg/mL (≈ 9.11 µM)	> 64 µg/mL	64 µg/mL (≈ 72.9 µM)		
C[C@@H]1NC(=O)[C@@H](N(C)C(=O)[C@H](CCCCN)NC(=O)c2ccc(-c3ccc(Cl)cc3)cc2)c2ccc(O)c(c2)-c2cc(ccc2O)C[C@@H](C(=O)N[C@@H](C)C(=O)c2nnc[nH]2)NC1=O [Compound 231]	1 µg/mL (≈ 1.14 µM)	8 µg/mL (≈ 9.11 µM)	6 µg/mL (≈ 6.83 µM)		
C[C@@H]1NC(=O)[C@@H](N(C)C(=O)[C@H](CCCCN)NC(=O)c2ccc(-c3ccc(Cl)cc3)cc2)c2ccc(O)c(c2)-c2cc(ccc2O)C[C@@H](C(=O)N[C@@H](C)C(=O)c2ncc[nH]2)NC1=O [Compound 232]	1 µg/mL (≈ 1.14 µM)	8 µg/mL (≈ 9.12 µM)	4 µg/mL (≈ 4.56 µM)		
CCC(=O)[C@H](C)NC(=O)[C@@H]1Cc2ccc(O)c(c2)-c2cc(ccc2O)[C@H](N(C)C(=O)[C@H](CCCCN)NC(=O)c2ccc(-c3ccc(Cl)cc3)cc2)C(=O)N[C@@H](C)C(=O)N1 [Compound 233]	4 µg/mL (≈ 4.77 µM)	32 µg/mL (≈ 38.1 µM)	24 µg/mL (≈ 28.6 µM)		
CCN(CC(N)=O)C(=O)[C@H](C)NC(=O)[C@@H]1Cc2ccc(O)c(c2)-c2cc(ccc2O)[C@H](N(C)C(=O)[C@H](CCCCN)NC(=O)c2ccc(-c3ccc(Cl)cc3)cc2)C(=O)N[C@@H](C)C(=O)N1 [Compound 234]	8 µg/mL (≈ 8.78 µM)	64 µg/mL (≈ 70.2 µM)	64 µg/mL (≈ 70.2 µM)		
C[C@@H]1NC(=O)[C@@H](N(C)C(=O)[C@H](CCCCN)NC(=O)c2ccc(-c3ccc(Cl)cc3)cc2)c2ccc(O)c(c2)-c2cc(ccc2O)C[C@@H](C(=O)N[C@@H](C)C(=O)c2ccn[nH]2)NC1=O [Compound 235]	2 µg/mL (≈ 2.28 µM)	32 µg/mL (≈ 36.5 µM)	4 µg/mL (≈ 4.56 µM)		
C[C@@H]1NC(=O)[C@@H](N(C)C(=O)[C@H](CCCCN)NC(=O)c2ccc(-c3ccc(Cl)cc3)cc2)c2ccc(O)c(c2)-c2cc(ccc2O)C[C@@H](C(=O)NC/C=C/S(C)(=O)=O)NC1=O [Compound 236]		> 64 µg/mL		8 µg/mL (≈ 9.16 µM)	48 µg/mL (≈ 55 µM)
Cc1nc(C(=O)[C@H](C)NC(=O)[C@@H]2Cc3ccc(O)c(c3)-c3cc(ccc3O)[C@H](N(C)C(=O)[C@H](CCCCN)NC(=O)c3ccc(-c4ccc(Cl)cc4)cc3)C(=O)N[C@@H](C)C(=O)N2)no1 [Compound 237]	4 µg/mL (≈ 4.48 µM)	8 µg/mL (≈ 8.95 µM)	12 µg/mL (≈ 13.4 µM)		
